Measured values as given in US9440982B2 (Eolas Therapeutics, Inc., priority 2012, dated 2016).

Columns and labels:
[1] = molecular target: T1, OX1 (Homo sapiens, UniProt O43613); experiment: Orexin receptor cell-based functional assay, [Ca2+]i by FLIPR, CHO-OX1 cells; settings: CHO-OX1 cells, [Ca2+]i by FLIPR, antagonist dose-range 0.1 nM-10 μM, EC90 of OXA; read-out: OX1
T1 construct: expressed in transfected cells; host or cells: CHO (CHO-OX1, kept under selection antibiotic)
T1 sequence (O43613 1-425): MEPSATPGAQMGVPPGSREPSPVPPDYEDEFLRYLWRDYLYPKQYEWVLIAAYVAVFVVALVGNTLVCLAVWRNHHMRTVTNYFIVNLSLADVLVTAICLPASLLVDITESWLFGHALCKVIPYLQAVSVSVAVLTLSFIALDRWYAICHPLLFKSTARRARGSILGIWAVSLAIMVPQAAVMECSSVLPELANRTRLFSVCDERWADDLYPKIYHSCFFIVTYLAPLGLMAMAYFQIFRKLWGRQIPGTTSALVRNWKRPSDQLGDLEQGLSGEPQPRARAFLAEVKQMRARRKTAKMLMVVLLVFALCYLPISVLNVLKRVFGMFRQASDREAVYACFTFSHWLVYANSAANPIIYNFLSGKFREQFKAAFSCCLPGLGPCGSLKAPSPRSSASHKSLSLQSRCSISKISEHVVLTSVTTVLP
Summary of the method: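 Antagonist mode FLIPR calcium read in CHO-OX1 and CHO-OX2 lines. Test compounds, dosed 0.1 nM-10 μM, preincubated 30 min after 37° C dye loading with 2.5 mM probenecid (calcium4 for 30 min or calcium6 for 2 h).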

[2] = molecular target: T2, CYP3A4 (Homo sapiens, UniProt P08684); experiment: Cytochrome P450 inhibition assay (midazolam hydroxylation); format: in vitro ADME; settings: human, human liver microsomes, probe midazolam (hydroxylation to 1′-hydroxymidazolam), 10 μM test compound, midazolam at approximately its Km
T2 construct: pre-incubated with human liver microsomes and NADPH; from tissue; host or cells: human liver microsomes
T2 sequence (P08684 whole entry): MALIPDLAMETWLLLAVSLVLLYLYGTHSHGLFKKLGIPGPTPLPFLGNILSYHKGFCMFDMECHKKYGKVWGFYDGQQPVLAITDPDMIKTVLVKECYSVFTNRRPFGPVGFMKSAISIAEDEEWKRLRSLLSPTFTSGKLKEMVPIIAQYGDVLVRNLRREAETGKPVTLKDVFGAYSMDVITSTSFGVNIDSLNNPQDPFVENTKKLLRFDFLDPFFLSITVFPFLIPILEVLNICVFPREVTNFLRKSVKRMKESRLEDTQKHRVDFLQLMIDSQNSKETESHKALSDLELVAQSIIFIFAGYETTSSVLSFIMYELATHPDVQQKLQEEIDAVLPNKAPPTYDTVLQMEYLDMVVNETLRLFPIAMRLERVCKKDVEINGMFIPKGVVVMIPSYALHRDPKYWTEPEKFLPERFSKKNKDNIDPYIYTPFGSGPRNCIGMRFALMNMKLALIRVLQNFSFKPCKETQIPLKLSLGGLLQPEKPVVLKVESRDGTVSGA
Summary of the method: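 Percent inhibition of midazolam 1′-hydroxylation by 10 μM compound was measured, midazolam dosed at about Km. Time-dependent inhibition was probed by a 30 min preincubation of compound with human liver microsomes and NADPH ahead of substrate, compared against samples without preincubation.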

SMILES	IC50 [1] [nM]	inhibition at 10 µM [2] [%]
Cc1ccc(-c2cnn(C)c2)c(C(=O)N2CCC[C@@H](C)[C@H]2CNc2nc3ccccc3o2)c1 [Example A2, ((2S,3R)-2-((Benzo[d]oxazol-2-ylamino)methyl)-3-methylpiperidin-1-yl)(5-methyl-2-(1-methyl-1H-pyrazol-4-yl)phenyl)methanone]	61	93
Cc1ccc(-c2cn[nH]c2)c(C(=O)N2CCC[C@@H](C)[C@H]2CNc2ccc(C(F)(F)F)cn2)c1 [Example A3, ((2S,3R)-3-Methyl-2-(((5-(trifluoromethyl)pyridin-2-yl)amino)methyl)piperidin-1-yl)(5-methyl-2-(1H-pyrazol-4-yl)phenyl)methanone]	6	98
Cc1cncc(-c2ccc(C)cc2C(=O)N2CCC[C@@H](C)[C@H]2CNc2ccc(C(F)(F)F)cn2)c1 [Example A5, ((2S,3R)-3-Methyl-2-(((5-(trifluoromethyl)pyridin-2-yl)amino)methyl)piperidin-1-yl)(5-methyl-2-(5-methylpyridin-3-yl)phenyl)methanone]	6	98
Cc1ccc(-c2ccn(C)c2)c(C(=O)N2CCC[C@@H](C)[C@H]2CNc2ccc(C(F)(F)F)cn2)c1 [Example A6, ((2S,3R)-3-Methyl-2-(((5-(trifluoromethyl)pyridin-2-yl)amino)methyl)piperidin-1-yl)(5-methyl-2-(1-methyl-1H-pyrrol-3-yl)phenyl)methanone]	13	85
Cc1ccc(-c2cnccc2C)c(C(=O)N2CCC[C@@H](C)[C@H]2CNc2ccc(C(F)(F)F)cn2)c1 [Example A8, ((2S,3R)-3-Methyl-2-(((5-(trifluoromethyl)pyridin-2-yl)amino)methyl)piperidin-1-yl)(5-methyl-2-(4-methylpyridin-3-yl)phenyl)methanone]	58	99
Cc1ccc(-c2ccccn2)c(C(=O)N2CCC[C@@H](C)[C@H]2CNc2ccc(C(F)(F)F)cn2)c1 [Example A9, ((2S,3R)-3-Methyl-2-(((5-(trifluoromethyl)pyridin-2-yl)amino)methyl)piperidin-1-yl)(5-methyl-2-(pyridin-2-yl)phenyl)methanone]	9	89
Cc1ccc(-c2cnn(C)c2)c(C(=O)N2CCC[C@@H](C)[C@H]2CNc2nc3ccc(Cl)cc3o2)c1 [Example A10, ((2S,3R)-2-(((6-Chlorobenzo[d]oxazol-2-yl)amino)methyl)-3-methylpiperidin-1-yl)(5-methyl-2-(1-methyl-1H-pyrazol-4-yl)phenyl)methanone]	81	98
C[C@@H]1CCCN(C(=O)c2c(F)cccc2-c2ncccn2)[C@@H]1CNc1ccc(C(F)(F)F)cn1 [Example A241, (2-Fluoro-6-(pyrimidin-2-yl)phenyl)((2S,3R)-3-methyl-2-(((5-(trifluoromethyl)pyridin-2-yl)amino)methyl)piperidin-1-yl)methanone]		62
Cc1ccc(-c2ncccn2)c(C(=O)N2CCC(F)(F)C[C@H]2CNc2ncc(C(F)(F)F)cn2)c1 [Example A312, (S)-(4,4-Difluoro-2-(((5-(trifluoromethyl)pyrimidin-2-yl)amino)methyl)piperidin-1-yl)(5-methyl-2-(pyrimidin-2-yl)phenyl)methanone]		40
Cc1cc(F)c(-c2ncccn2)c(C(=O)N2CCC[C@@H](C)[C@H]2CNc2ccc(C(F)(F)F)cn2)c1 [Example A374, (3-fluoro-5-methyl-2-(pyrimidin-2-yl)phenyl)((2S,3R)-3-methyl-2-(((5-(trifluoromethyl)pyridin-2-yl)amino)methyl)piperidin-1-yl)methanone]		76

Results, then the compound that gave them:

IC50 [1] [nM]	inhibition at 10 µM [2] [%]	SMILES
3	78	Cc1ccc(-n2nccn2)c(C(=O)N2CCC[C@@H](C)[C@H]2CNc2nc3cc(Cl)ccc3o2)c1 [Example A11, ((2S,3R)-2-(((5-Chlorobenzo[d]oxazol-2-yl)amino)methyl)-3-methylpiperidin-1-yl)(5-methyl-2-(2H-1,2,3-triazol-2-yl)phenyl)methanone]
20	98	Cc1ccc(-c2cnn(C)c2)c(C(=O)N2CCC[C@@H](C)[C@H]2CNc2nc3cc(Cl)ccc3o2)c1 [Example A12, ((2S,3R)-2-(((5-chlorobenzo[d]oxazol-2-yl)amino)methyl)-3-methylpiperidin-1-yl)(5-methyl-2-(1-methyl-1H-pyrazol-4-yl)phenyl)methanone]
10	80	Cc1ccc(-n2nccn2)c(C(=O)N2CCC[C@@H](C)[C@H]2CNc2nc3ccc(Cl)cc3o2)c1 [Example A14, ((2S,3R)-2-(((6-Chlorobenzo[d]oxazol-2-yl)amino)methyl)-3-methylpiperidin-1-yl)(5-methyl-2-(2H-1,2,3-triazol-2-yl)phenyl)methanone]
	67	Cc1ccc(-n2nccn2)c(C(=O)N2CCC[C@@H](C)[C@H]2CNc2ncc3ccc(C)cc3n2)c1 [Example A215, ((2S,3R)-3-Methyl-2-(((7-methylquinazolin-2-yl)amino)methyl)piperidin-1-yl)(5-methyl-2-(2H-1,2,3-triazol-2-yl)phenyl)methanone]
	67	Cc1ccc(-n2nccn2)c(C(=O)N2CCC[C@@H](C)[C@H]2CNc2ncc3ccccc3n2)c1 [Example A216, ((2S,3R)-3-Methyl-2-((quinazolin-2-ylamino)methyl)piperidin-1-yl)(5-methyl-2-(2H-1,2,3-triazol-2-yl)phenyl)methanone]
	60	C[C@@H]1CCCN(C(=O)c2cc(F)ccc2-c2ncccn2)[C@@H]1CNc1ncc(Cl)cn1 [Example A226, ((2S,3R)-2-(((5-Chloropyrimidin-2-yl)amino)methyl)-3-methylpiperidin-1-yl)(5-fluoro-2-(pyrimidin-2-yl)phenyl) methanone]
	42	C[C@@H]1CCCN(C(=O)c2c(F)cccc2-c2ncccn2)[C@@H]1CNc1ncc(C(F)(F)F)cn1 [Example A240, (2-Fluoro-6-(pyrimidin-2-yl)phenyl)((2S,3R)-3-methyl-2-(((5-(trifluoromethyl)pyrimidin-2-yl)amino)methyl)piperidin-1-yl)methanone]
	69	C[C@@H]1CCCN(C(=O)c2cc(F)c(F)cc2-n2nccn2)[C@@H]1CNc1ccc(Cl)cn1 [Example A246, ((2S,3R)-2-(((5-Chloropyridin-2-yl)amino)methyl)-3-methylpiperidin-1-yl)(4,5-difluoro-2-(2H-1,2,3-triazol-2-yl)phenyl)methanone]
	52	C[C@@H]1CCCN(C(=O)c2cccc(F)c2-n2nccn2)[C@@H]1CNc1ncc(C(F)(F)F)cn1 [Example A256, (3-Fluoro-2-(2H-1,2,3-triazol-2-yl)phenyl)((2S,3R)-3-methyl-2-(((5-(trifluoromethyl)pyrimidin-2-yl)amino)methyl)piperidin-1-yl)methanone]
	76	Cc1cccc(C(=O)N2CCC[C@@H](C)[C@H]2CNc2ccc(C(F)(F)F)cn2)c1-n1nccn1 [Example A266, ((2S,3R)-3-Methyl-2-(((5-(trifluoromethyl)pyridin-2-yl)amino)methyl)piperidin-1-yl)(3-methyl-2-(2H-1,2,3-triazol-2-yl)phenyl)methanone]
	65	Cc1cccc(C(=O)N2CCC[C@@H](C)[C@H]2CNc2ncc(C(F)(F)F)cn2)c1-n1nccn1 [Example A267, ((2S,3R)-3-Methyl-2-(((5-(trifluoromethyl)pyrimidin-2-yl)amino)methyl)piperidin-1-yl)(3-methyl-2-(2H-1,2,3-triazol-2-yl)phenyl)methanone]
	60	Cc1cccc(C(=O)N2CCC[C@@H](C)[C@H]2CNc2ncc(Cl)cn2)c1-n1nccn1 [Example A268, ((2S,3R)-2-(((5-Chloropyrimidin-2-yl)amino)methyl)-3-methylpiperidin-1-yl)(3-methyl-2-(2H-1,2,3-triazol-2-yl)phenyl)methanone]
	51	Cc1cccc(C(=O)N2CCC[C@@H](C)[C@H]2CNc2ncc(C(F)(F)F)cn2)c1-c1ncccn1 [Example A299, ((2S,3R)-3-Methyl-2-(((5-(trifluoromethyl)pyrimidin-2-yl)amino)methyl)piperidin-1-yl)(3-methyl-2-(pyrimidin-2-yl)phenyl)methanone]
	83	Cc1cc(C(=O)N2CCC[C@@H](C)[C@H]2CNc2ccc(C(F)(F)F)cn2)c(-n2nccn2)cc1F [Example A368, (4-Fluoro-5-methyl-2-(2H-1,2,3-triazol-2-yl)phenyl)((2S,3R)-3-methyl-2-(((5-(trifluoromethyl)pyridin-2-yl)amino)methyl)piperidin-1-yl)methanone]
